Reference: US7915291B2, “Hepatitis C virus inhibitors” (Bristol-Myers Squibb Company, priority 2002, dated 2011)
Read-outs that look alike come from different tables or passages of the source.

Key:
[1] = molecular target: HCV NS3/4A protease complex, BMS strain (UniProt P27958, C1454S/C1711G, species not given/STRAIN_BMS); assay: Recombinant HCV NS3/4A protease complex FRET peptide assay (BMS strain); format: biochemical, HCV genotype 1a
Summary of the method: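 Percent inhibition taken from the linear-range fluorescence slope relative to uninhibited control, read kinetically for about 15 min at 25° C. Enzyme (2-3 nM, BMS NS3/4A complex, lysine-tailed, Ni-NTA purified) met compound for 1 min before 2 μM FRET depsipeptide substrate started cleavage.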

[2] = test system: HCV replicon in Huh7 cells; assay: HCV replicon cell-based assay; set-up: species or system HCV strain 1B; details: Hepatitis C virus, Huh-7; HCV replicon, Huh7 cells; read-out: EC50 range
[3] = NS3/4A BMS strain; read-out: IC50 range
[4] = read-out: IC50 range; NS3/4A BMS strain

C=CC1C[C@]1(NC(=O)[C@@H]1C[C@@H](Oc2nccc3c(SCCC)c(OCC)ccc23)CN1C(=O)[C@@H](NC(=O)OC(C)(C)C)C(C)(C)C)C(=O)NS(=O)(=O)C1CC1 (stereo partly drawn) [Compound 206, BOCNH-P3(L-t-BuGly)-P2[(4R)-(6-ethoxy-5propylthio -isoquinoline-1-oxo)-S-proline]-P1(1R,2S VinylAcca)-CONHSO2Cyclopropane]
IC50 [1, 3]: < 100 nM
EC50 [2]: < 100 nM

CC[C@@H]1C[C@]1(NC(=O)[C@@H]1C[C@@H](Oc2nccc3c(F)c(OC)ccc23)CN1C(=O)[C@@H](NC(=O)OC(C)(C)C)C(C)(C)C)C(=O)NS(=O)(=O)C1CC1 [Compound 299]
IC50 [1, 3]: < 100 nM
EC50 [2]: 100 to 1000 nM

C=C[C@@H]1C[C@]1(NC(=O)[C@@H]1C[C@@H](Oc2nccc3ccccc23)CN1C(=O)[C@@H](NC(=O)Oc1ccccc1)C(C)(C)C)C(=O)NS(=O)(=O)C1CC1 [Compound 121]
IC50 [1, 3]: < 100 nM
EC50 [2]: 100 to 1000 nM

C=CC1CC1(NC(=O)C1CC(Oc2nc(-c3ccccc3)nc3ccc(OC)cc23)CN1C(=O)[C@@H](NC(=O)OC(C)(C)C)C(C)(C)C)C(=O)NS(=O)(=O)C(C)C (mixture of isomers) [Compound 45]
IC50 [1, 3]: 100 to 1000 nM
EC50 [2]: 1000 to 10000 nM

C=C[C@@H]1C[C@]1(NC(=O)[C@@H]1CC(Oc2nccc3cc(OC)ccc23)CN1C(=O)[C@@H](NC(=O)c1cnccn1)C(C)(C)C)C(=O)NS(=O)(=O)C1CC1 (some centres unmarked) [Compound 63]
IC50 [1, 3]: < 100 nM
EC50 [2]: 1000 to 10000 nM

C=C[C@@H]1C[C@]1(NC(=O)[C@@H]1C[C@@H](Oc2nccc3c(OC)c(Cl)ccc23)CN1C(=O)[C@@H](NC(=O)OC(C)(C)C)C(C)(C)C)C(=O)NS(=O)(=O)C1CC1 [Compound 276]
IC50 [1, 3]: < 100 nM
EC50 [2]: < 100 nM

C=CC1C[C@]1(NC(=O)[C@@H]1C[C@@H](Oc2nc(-c3ccc(N(C)C)cc3)cc3cc(OC)ccc23)CN1C(=O)[C@@H](NC(=O)OC(C)(C)C)C(C)(C)C)C(=O)NS(=O)(=O)C1CC1 (some centres unmarked) [Compound 326]
IC50 [1, 3]: < 100 nM
EC50 [2]: < 100 nM

C=CC1C[C@]1(NC(=O)[C@@H]1C[C@@H](Oc2nc(-c3csc(N(CC)CC)n3)cc3cc(OC)ccc23)CN1C(=O)[C@@H](NC(=O)OC(C)(C)C)C(C)(C)C)C(=O)NS(=O)(=O)C1CC1 (some centres unmarked) [Compound 321]
IC50 [1, 3]: < 100 nM
EC50 [2]: 100 to 1000 nM

C=C[C@@H]1C[C@]1(NC(=O)[C@@H]1C[C@@H](Oc2nccc3ccccc23)CN1C(=O)[C@@H](NC(=O)OCCOC)C(C)(C)C)C(=O)NS(=O)(=O)C1CC1 [Compound 124]
IC50 [1, 3]: 100 to 1000 nM
EC50 [2]: 1000 to 10000 nM

C=CC1C[C@]1(NC(=O)[C@@H]1C[C@@H](Oc2nccc(-c3nccs3)n2)CN1C(=O)[C@@H](NC(=O)CC1CC1)C(C)(C)C)C(=O)NS(=O)(=O)C1CC1 (some centres unmarked) [Compound 340]
IC50 [1, 3]: < 100 nM
EC50 [2]: 10000 to 100000 nM

C=CC1C[C@]1(NC(=O)[C@@H]1C[C@@H](Oc2nnc(OC(C)C)c3ccccc23)CN1C(=O)[C@@H](NC(=O)OC(C)(C)C)C(C)(C)C)C(=O)NS(=O)(=O)C1CC1 (some centres unmarked) [Compound 199]
IC50 [1, 3]: < 100 nM
EC50 [2]: 100 to 1000 nM

C=C[C@@H]1C[C@]1(NC(=O)C1CC(Oc2nc(-c3ccccc3)nc3ccccc23)CN1C(=O)[C@@H](NC(=O)OC(C)(C)C)C(C)(C)C)C(=O)NS(=O)(=O)C1CC1 (some centres unmarked) [Compound 47]
IC50 [1, 3]: < 100 nM
EC50 [2]: 100 to 1000 nM

C=C[C@@H]1C[C@]1(NC(=O)[C@@H]1C[C@@H](Oc2nccc3cc(OC)ccc23)CN1C(=O)[C@@H](NC(=O)OCC(C)(C)C)C(C)(C)C)C(=O)NS(=O)(=O)C1CCC1 [Compound 381]
IC50 [1, 4]: < 100 nM
EC50 [2]: 100 to 1000 nM

C=C[C@@H]1C[C@]1(NC(=O)[C@@H]1C[C@@H](Oc2nccc3c2ccc2occc23)CN1C(=O)[C@@H](NC(=O)OC(C)(C)C)C(C)(C)C)C(=O)NS(=O)(=O)C1CC1 [Compound 268]
IC50 [1, 3]: < 100 nM
EC50 [2]: < 100 nM

C=CC1C[C@]1(NC(=O)[C@@H]1C[C@@H](Nc2nccc3ccccc23)CN1C(=O)[C@@H](NC(=O)OC(C)(C)C)C(C)(C)C)C(=O)NS(=O)(=O)C1CC1 (some centres unmarked) [Compound 357]
IC50 [1, 4]: < 100 nM
EC50 [2]: 100 to 1000 nM

C=CC1CC1(NC(=O)[C@@H]1C[C@@H](Oc2cc(CC)nc3c(C)noc23)CN1C(=O)[C@@H](NC(=O)OC(C)(C)C)C(C)(C)C)C(=O)NS(=O)(=O)C1CC1 (some centres unmarked) [Compound 9]
IC50 [1, 3]: < 100 nM
EC50 [2]: 100 to 1000 nM

C=C[C@@H]1C[C@]1(NC(=O)[C@@H]1C[C@@H](Oc2nccc3ccccc23)CN1C(=O)[C@@H](NC(=O)O[C@@H]1C[C@H](C)CC[C@H]1C(C)C)C(C)(C)C)C(=O)NS(=O)(=O)C1CC1 [Compound 128]
IC50 [1, 3]: < 100 nM
EC50 [2]: 100 to 1000 nM

C=C[C@@H]1C[C@]1(NC(=O)[C@@H]1C[C@@H](Oc2nccc3cc(OC)ccc23)CN1C(=O)[C@@H](NC(=O)OC1CCCC1)[C@H](C)OC)C(=O)NS(=O)(=O)C1CC1 [Compound 104]
IC50 [1, 4]: < 100 nM
EC50 [2]: < 100 nM

C=CC1C[C@]1(NC(=O)[C@@H]1C[C@@H](Oc2nccc3sccc23)CN1C(=O)[C@@H](NC(=O)OC(C)(C)C)C(C)(C)C)C(=O)NS(=O)(=O)C1CC1 (some centres unmarked) [Compound 235]
IC50 [1, 3]: < 100 nM
EC50 [2]: 100 to 1000 nM

C=C[C@@H]1C[C@]1(NC(=O)[C@@H]1C[C@@H](Oc2nccc3cc(OC)ccc23)CN1C(=O)[C@@H](NC(=O)N[C@H](C(=O)OC)[C@@H](C)CC)C(C)(C)C)C(=O)NS(=O)(=O)C1CC1 [Compound 151]
IC50 [1, 3]: < 100 nM
EC50 [2]: < 100 nM

C=C[C@@H]1C[C@]1(NC(=O)[C@@H]1CC(Oc2nccc3cc(OC)ccc23)CN1C(=O)[C@@H](NC(=O)OC1CCC1)C(C)(C)C)C(=O)NS(=O)(=O)C1CC1 (some centres unmarked) [Compound 71]
IC50 [1, 3]: < 100 nM
EC50 [2]: < 100 nM

C=C[C@@H]1C[C@]1(NC(=O)C1C[C@@H](Oc2nc(-c3ccccc3)nc3ccc(OC)cc23)CN1C(=O)[C@@H](N)C(C)(C)C)C(=O)NS(=O)(=O)C1CC1 (some centres unmarked) [Compound 50]
IC50 [1, 3]: 100 to 1000 nM
EC50 [2]: 1000 to 10000 nM

C=C[C@@H]1C[C@]1(NC(=O)[C@@H]1C[C@@H](Oc2nccc3cc(OC)ccc23)CN1C(=O)[C@@H](NC(=O)OC(C)(C)C(F)(F)F)C(C)(C)C)C(=O)NS(=O)(=O)C1CC1 [Compound 155]
IC50 [1, 3]: < 100 nM
EC50 [2]: < 100 nM

C=C[C@@H]1C[C@]1(NC(=O)[C@@H]1CC(Oc2nccc3cc(OC)ccc23)CN1C(=O)[C@H](CCCC)N(C)C(=O)OC(C)(C)C)C(=O)NS(=O)(=O)C1CC1 (some centres unmarked) [Compound 87]
IC50 [1, 3]: 1000 to 10000 nM
EC50 [2]: 10000 to 100000 nM

C=CC1CC1(NC(=O)C1CC(Oc2nc(Br)c(O)c3ccccc23)CN1C(=O)C(NC(=O)OC(C)(C)C)C(C)(C)C)C(=O)NS(=O)(=O)C1CC1 (centres unmarked) [Compound 224]
IC50 [1, 3]: < 100 nM
EC50 [2]: 100 to 1000 nM

C=C[C@@H]1C[C@]1(NC(=O)[C@@H]1C[C@@H](Oc2nccc3c(F)c(OC)ccc23)CN1C(=O)[C@@H](NC(=O)OC(C)(C)C)C(C)(C)C)C(=O)NS(=O)(=O)C1CC1 [Compound 274]
IC50 [1, 3]: < 100 nM
EC50 [2]: 100 to 1000 nM

C=C[C@@H]1C[C@]1(NC(=O)[C@@H]1C[C@@H](Oc2cncc(-c3ccoc3)c2)CN1C(=O)[C@@H](NC(=O)OC(C)(C)C)C(C)(C)C)C(=O)NS(=O)(=O)C1CC1 [Compound 424]
IC50 [1, 3]: < 100 nM
EC50 [2]: 100 to 1000 nM

C=C[C@@H]1C[C@]1(NC(=O)[C@@H]1C[C@@H](Oc2nccc3cc(OC)ccc23)CN1C(=O)C(NC(=O)OC(C)(C)C)C(C)c1ccccc1)C(=O)NS(=O)(=O)C1CC1 (single isomer, unassigned) [Compound 135]
IC50 [1, 3]: < 100 nM
EC50 [2]: 100 to 1000 nM
